From patent US12104178B2, “DHFR tunable protein regulation” (Obsidian Therapeutics, Inc., priority 2017, dated 2024)
Like-named read-outs stand apart in the source and are kept apart here.

Columns and labels:
HEK-293T cells = experiment: DD-IL15 induction, human IL15 ELISA (Table 80); type: cell-based; settings: DD-IL15 (OT-IL15-002, ecDHFR-IL15) in HEK-293T, TMP 24 hrs
Experimental: To test ligand dependent IL15 production, 1 million HEK-293T cells were plated in a 6-well plate in growth media containing DMEM and 10% FBS and incubated overnight at 37° C. at 5% CO2. Cells were then transfected with 100 ng of OT-IL15-001(constitutive) or OT-IL15-002 (ecDHFR-IL15) using Lipofectamine 2000 and incubated for 48 hrs. […] Media was collected and the undiluted samples or samples diluted 4, 16, 256, 1024, 4096 or 16384-fold were tested using human IL15 ELISA. The stabilization ratio was defined as fold change in IL15 expression with ligand treatment compared to treatment with DMSO (i.e. in the absence of ligand) with the same construct.

T cells [1] = experiment: TMP dose and exposure time on membrane bound IL15 expression (Table 89); type: cell-based; settings: T-cell
Experimental: For this purpose, T cells were activated with CD3/CD28 beads at 3:1 bead to T cell ratio in 24-well plates for 24 hrs. Lentivirus was added to wells. After 24 hrs, fresh media was added every 2-3 days to expand cells while maintaining cells at 0.5-1×10^6/ml. On day 11 of expansion.

T cells [2] = settings: human, 160 μM
Experimental: The percentage of divided cells within the CD4 and the CD8 populations of T cells was measured using FACS.

in vivo = settings: Balb/C nu/nu, mouse, plasma

SMILES: COc1cc(Cc2cnc(N)nc2N)cc(OC)c1OC [TMP, Trimethoprim]
- IL15 ELISA reading, 10 μM TMP (HEK-293T cells; media dilution 1-fold): 0.820
- IL15 ELISA reading, 10 μM TMP (HEK-293T cells; media dilution 4-fold): 0.287
- IL15 ELISA reading, 10 μM TMP (HEK-293T cells; media dilution 16-fold): 0.116
- IL15 ELISA reading, 10 μM TMP (HEK-293T cells; media dilution 64-fold): 0.073
- IL15 ELISA reading, 10 μM TMP (HEK-293T cells; media dilution 256-fold): 0.057
- IL15 ELISA reading, 10 μM TMP (HEK-293T cells; media dilution 1024-fold): 0.048
- IL15 ELISA reading, 10 μM TMP (HEK-293T cells; media dilution 4096-fold): 0.049
- IL15 ELISA reading, 10 μM TMP (HEK-293T cells; media dilution 16384-fold): 0.049
- EC50 (T cells [1]; 6 h, read-out: EC50, uM (% IL15 + IL15Ra+)): 0.021 µM
- EC50 (T cells [1]; 6 h, read-out: EC50, uM (total IL15 MFI)): 0.03 µM
- EC90 (T cells [1]; 6 h, read-out: EC90, uM (% IL15 + IL15Ra+)): 0.81 µM
- EC90 (T cells [1]; 6 h, read-out: EC90, uM (total IL15 MFI)): 0.88 µM
- EC50 (T cells [1]; 24 h, read-out: EC50, uM (% IL15 + IL15Ra+)): 0.035 µM
- EC50 (T cells [1]; 24 h, read-out: EC50, uM (total IL15 MFI)): 0.063 µM
- EC90 (T cells [1]; 24 h, read-out: EC90, uM (% IL15 + IL15Ra+)): 0.255 µM
- EC90 (T cells [1]; 24 h, read-out: EC90, uM (total IL15 MFI)): 0.75 µM
- EC50 (T cells [1]; read-out: EC50, uM (% IL15 + IL15Ra+)): 11.5 µM
- EC50 (T cells [1]; read-out: EC50, uM (total IL15 MFI)): 11.1 µM
- EC90 (T cells [1]; read-out: EC90, uM (% IL15 + IL15Ra+)): 59.6 µM
- EC90 (T cells [1]; read-out: EC90, uM (total IL15 MFI)): 66.9 µM
- TMP concentration in the plasma at early time points (100 mg/kg): 50 to 100 µM
- TMP concentration in the plasma at early time points (300 mg/kg): 100 to 150 µM
- TMP levels in the plasma 4 hours after dosing (all doses): Virtually no TMP levels were detected
- Reduction in the percentage of divided cells (T cells [2]): 70-90%
- concentration at 0.083 h (in vivo; 30 mg/kg): 25.7 µM
- concentration at 0.25 h (in vivo; 30 mg/kg): 19.6 µM
- concentration at 0.5 h (in vivo; 30 mg/kg): 9.84 µM
- concentration at 1 h (in vivo; 30 mg/kg): 2.55 µM
- concentration at 2 h (in vivo; 30 mg/kg): 1.19 µM
- concentration at 4 h (in vivo; 30 mg/kg): 0.16 µM
- concentration at 8 h (in vivo; 30 mg/kg): 0.04 µM
- concentration at 0.083 h (in vivo; 100 mg/kg): 81.5 µM
- concentration at 0.25 h (in vivo; 100 mg/kg): 78.1 µM
- concentration at 0.5 h (in vivo; 100 mg/kg): 58.8 µM
- concentration at 1 h (in vivo; 100 mg/kg): 27.6 µM
- concentration at 2 h (in vivo; 100 mg/kg): 2.97 µM
- concentration at 8 h (in vivo; 100 mg/kg): 0.56 µM
- concentration at 24 h (in vivo; 100 mg/kg): 0.01 µM
- concentration at 0.083 h (in vivo; 300 mg/kg): 117 µM
- concentration at 0.25 h (in vivo; 300 mg/kg): 137 µM
- concentration at 0.5 h (in vivo; 300 mg/kg): 128 µM
- concentration at 1 h (in vivo; 300 mg/kg): 80 µM
- concentration at 2 h (in vivo; 300 mg/kg): 32.6 µM
- concentration at 4 h (in vivo; 300 mg/kg): 1.03 µM
- concentration at 8 h (in vivo; 300 mg/kg): 0.3 µM
- concentration at 24 h (in vivo; 300 mg/kg): 0.01 µM
